Data reported in PubChem BioAssay (NCI).
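Cultured in 96-well plates, cells were exposed to test compound for 48 hours across five concentrations. The concentration for 50% growth inhibition is given as GI50. Definition used: TGI = concentration required for complete inhibition of growth.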

Assays:
Test in all cases: NCI anticancer screen, dose series, 48 h
SK-OV-3 ovarian = test system: SK-OV-3 ovarian
MOLT-4 leukemia = test system: MOLT-4 leukemia
M14 melanoma = test system: M14 melanoma
UO-31 renal = test system: UO-31 renal
MDA-MB-231 breast = test system: MDA-MB-231 breast
RPMI-8226 leukemia = test system: RPMI-8226 leukemia
K-562 leukemia = test system: K-562 leukemia
SK-MEL-28 melanoma = test system: SK-MEL-28 melanoma
OVCAR-3 ovarian = test system: OVCAR-3 ovarian
U251 CNS = test system: U251 CNS
EKVX NSCLC = test system: EKVX NSCLC
MCF7 breast = test system: MCF7 breast
NCI-H23 lung = test system: NCI-H23 lung
SR leukemia = test system: SR leukemia
LOX IMVI melanoma = test system: LOX IMVI melanoma
SNB-19 CNS = test system: SNB-19 CNS
BT-549 breast = test system: BT-549 breast
RXF 393 renal = test system: RXF 393 renal
A498 renal = test system: A498 renal
SF-268 CNS = test system: SF-268 CNS
OVCAR-8 ovarian = test system: OVCAR-8 ovarian
HT29 colon = test system: HT29 colon
SK-MEL-5 melanoma = test system: SK-MEL-5 melanoma
HCT-116 colon = test system: HCT-116 colon
UACC-257 melanoma = test system: UACC-257 melanoma
KM12 colon = test system: KM12 colon

`Cc1nc(N)sc1-c1ccnc(Nc2ccc(N3CCOCC3)cc2)n1` was tested, and the GI50 (SK-OV-3 ovarian) was 2620 nM, the TGI (SK-OV-3 ovarian) was greater than 100000 nM and the GI50 (MOLT-4 leukemia) was 497 nM. For the same compound, the TGI (MOLT-4 leukemia) was greater than 56100 nM, the GI50 (M14 melanoma) was 2660 nM and the TGI (M14 melanoma) was greater than 100000 nM. It also gave a GI50 (UO-31 renal) of 1280 nM, a TGI (UO-31 renal) greater than 51100 nM and a GI50 (MDA-MB-231 breast) of 3100 nM. The TGI (MDA-MB-231 breast) was greater than 100000 nM, the GI50 (RPMI-8226 leukemia) was 1660 nM and the TGI (RPMI-8226 leukemia) was greater than 38300 nM. The GI50 (K-562 leukemia) was 1600 nM, the TGI (K-562 leukemia) was greater than 100000 nM and the GI50 (SK-MEL-28 melanoma) was 4220 nM. The TGI (SK-MEL-28 melanoma) was greater than 100000 nM, the GI50 (OVCAR-3 ovarian) was 7370 nM and the TGI (OVCAR-3 ovarian) was greater than 100000 nM. For the same compound, the GI50 (U251 CNS) was 2360 nM, the TGI (U251 CNS) was greater than 100000 nM and the GI50 (EKVX NSCLC) was 4020 nM. The TGI (EKVX NSCLC) was greater than 100000 nM, the GI50 (MCF7 breast) was 1430 nM and the TGI (MCF7 breast) was greater than 100000 nM. For the same compound, the GI50 (NCI-H23 lung) was 1600 nM, the TGI (NCI-H23 lung) was greater than 100000 nM and the GI50 (SR leukemia) was 346 nM. For the same compound, the TGI (SR leukemia) was 5390 nM, the GI50 (LOX IMVI melanoma) was 907 nM and the TGI (LOX IMVI melanoma) was greater than 100000 nM. The GI50 (SNB-19 CNS) was greater than 49500 nM, the TGI (SNB-19 CNS) was greater than 100000 nM and the GI50 (BT-549 breast) was 1560 nM. For the same compound, the TGI (BT-549 breast) was greater than 100000 nM, the GI50 (RXF 393 renal) was 938 nM and the TGI (RXF 393 renal) was 2780 nM. For the same compound, the GI50 (A498 renal) was 731 nM, the TGI (A498 renal) was 2070 nM and the GI50 (SF-268 CNS) was 1540 nM. It also gave a TGI (SF-268 CNS) of 50700 nM, a GI50 (OVCAR-8 ovarian) of 2780 nM and a TGI (OVCAR-8 ovarian) greater than 100000 nM. For the same compound, the GI50 (HT29 colon) was 2110 nM, the TGI (HT29 colon) was greater than 100000 nM and the GI50 (SK-MEL-5 melanoma) was 5050 nM. The TGI (SK-MEL-5 melanoma) was greater than 100000 nM, the GI50 (HCT-116 colon) was 1520 nM and the TGI (HCT-116 colon) was greater than 100000 nM. For the same compound, the TGI (UACC-257 melanoma) was greater than 100000 nM, the GI50 (KM12 colon) was 1590 nM and the TGI (KM12 colon) was greater than 100000 nM.
